Assay results from patent US8927715B2, “Inhibitors of 11β-hydroxysteroid dehydrogenase type 1” (Vitae Pharmaceuticals, Inc., priority 2006, dated 2015).
pIC50: −log10 of the molar value.

Legend:
human 11β-HSD1 [1] = molecular target: T1, human 11β-HSD1 (Homo sapiens, UniProt P28845); assay: Scintillation Proximity Assay: inhibition of purified 11β-HSD1 (Biological Test Example 1); type: biochemical; design: made in house; host or cells: E. coli; settings: purified recombinant 11β-HSD1, SPA; read-out: Biological Test Example 1 (IC50 class)
Protocol: The inhibition of purified 11β-HSD1 by compounds of Formula I or I* is measured using a Scintillation Proximity Assay. All reactions are carried out at room temperature in 96 well flexible Microbeta reaction plates. First, 1 μL of a 0.1 mM solution of a compound of Formula I or I* is mixed in DMSO diluted in half-log increments (8 points) starting at 1 μM final concentration. To this dot is added 50 μL of substrate solution (50 mM HEPES, pH 7.4, 100 mM KCl, 5 mM NaCl, 2 mM MgCl2 containing 20 μM ^3H cortisone, 1 mM NADPH). […] The reaction is then incubated for 90 minutes, and stopped by adding 50 μl of SPA bead mix (18-β-glycyrrhetinic acid, 10 μM final, 5 mg/ml protein A coated YSi SPA beads, and 1 μg/ml α-cortisol antibody (East Coast Biologics)). The plate is shaken for 120 minutes, and the radioactivity corresponding to ^3H cortisol is measured on a Wallac Microbeta.
Target sequence in this assay (P28845 whole entry, species assumed): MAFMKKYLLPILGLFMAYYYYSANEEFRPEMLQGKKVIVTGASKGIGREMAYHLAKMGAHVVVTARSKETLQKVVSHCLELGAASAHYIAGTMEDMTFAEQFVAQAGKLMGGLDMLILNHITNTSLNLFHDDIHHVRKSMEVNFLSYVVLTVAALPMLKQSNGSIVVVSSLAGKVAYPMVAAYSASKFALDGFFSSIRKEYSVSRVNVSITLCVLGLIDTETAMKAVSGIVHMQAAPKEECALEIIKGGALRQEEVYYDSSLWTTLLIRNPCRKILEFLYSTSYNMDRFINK

human 11β-HSD1 [2] = molecular target: T1, human 11β-HSD1; assay: Inhibition of a microsomal preparation of 11β-HSD1, SPA (Biological Test Example 2); type: biochemical; design: expressed in transfected cells; host or cells: CHO cells (microsomes); settings: read-out: Biological Test Example 2 (IC50 class)
Summary of the method: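 Microsomes from CHO cells overexpressing human 11β-HSD1 (10-20 μg/ml total protein) added after 10 min compound pre-incubation, then 90 min at room temperature. Stopped with 18β-glycyrrhetinic acid (10 nM), protein A SPA beads and anti-cortisol antibody; [3H]cortisol measured by SPA after 120 min.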
Target sequence in this assay (P28845 whole entry): as the sequence (P28845 whole entry, species assumed) above

Compound	pIC50 (human 11β-HSD1 [1])	pIC50 (human 11β-HSD1 [2])
CC(C)(C)OC(=O)N1CCC2(CCCN(C(=O)NC3C4CC5CC(C4)CC3C5)C2)C1 (racemic) [Example 10, (±)-tert-Butyl 7((2-adamantyl)carbamoyl)-2,7-diazaspiro[4.5]decane-2-carboxylate]	6.00 to 7.30	
O=C(O)C1CC2(CCN(C(=O)NC3C4CC5CC(C4)CC3C5)CC2)c2ccccc21 (racemic) [Example 12, (±)-1′-((2-Adamantyl)carbamoyl)-2,3-dihydrospiro[indene-1,4′-piperidine]-3-carboxylic acid]	> 7.30	
O=C(O)C1CC2(CCN(C(=O)NC3C4CC5CC(C4)CC3C5)CC2)Oc2ccccc21 (racemic) [Example 13, (±)-1′-((2-Adamantyl)carbamoyl)spiro[chroman-2,4′-piperidine]-4-carboxylic acid]	6.00 to 7.30	
CCOC(=O)CC1CC2(CCN(C(=O)NC3C4CC5CC(C4)CC3C5)CC2)Oc2ccccc21 (racemic) [Example 18, (±)-Ethyl 2-1′-((2-adamantyl)carbamoyl)spiro[chroman-2,4′-piperidine]-4-yl)acetate]	6.00 to 7.30	
CC(C)(C)OC(=O)N1CC2(CCN(C(=O)NC3C4CC5CC(C4)CC3C5)CC2)c2ccccc21 (centres unmarked) [Example 1, Tert-butyl 1′-((2-adamantyl)carbamoyl)spiro[indoline-3,4′-piperidine]-1-carboxylate]	> 7.30	
O=C(NC1C2CC3CC(C2)CC1C3)N1CCC2(CC1)CNc1ccccc12 (centres unmarked) [Example 2, N-(2-Adamantyl)spiro[indoline-3,4′-piperidine]-1′-carboxamide]	> 7.30	
CC(=O)N1CC2(CCN(C(=O)NC3C4CC5CC(C4)CC3C5)CC2)c2ccccc21 (centres unmarked) [Example 7, 1-Acetyl-N-(2-adamantyl)spiro[indoline-3,4′-piperidine]-1′-carboxamide]	> 7.30	
CC(C)(C)OC(=O)N1CCC2(CCN(C(=O)NC3C4CC5CC(C4)CC3C5)CC2)CC1 (centres unmarked) [Example 8]	6.00 to 7.30	
CC(C)(C)OC(=O)N1CCC2(CCN(C(=O)NC3C4CC5CC(C4)CC3C5)CC2)C1 (centres unmarked) [Example 9, tert-Butyl 8-((2-adamantyl)carbamoyl)-2,8-diazaspiro[4.5]decane-2-carboxylate]	6.00 to 7.30	
O=C(O)C1=CC2(CCN(C(=O)NC3C4CC5CC(C4)CC3C5)CC2)c2ccccc21 (centres unmarked) [Example 11, 1′-((2-Adamantyl)carbamoyl)spiro[indene-1,4′-piperidine]-3-carboxylic acid]	> 7.30	
CCOC(=O)C1=CC2(CCN(C(=O)NC3C4CC5CC(C4)CC3C5)CC2)c2ccccc21 (centres unmarked) [Example 15, Ethyl 1′-((2-adamantyl)carbamoyl)spiro[indene-1,4′-piperidine]-3-carboxylate]	> 7.30	
CS(=O)(=O)N1CC2(CCN(C(=O)NC3C4CC5CC(C4)CC3C5)CC2)c2ccccc21 (centres unmarked) [Example 19, N-(2-Adamantyl)-1-(methylsulfonyl)spiro[indoline-3,4′-piperidine]-1′-carboxamide]	> 7.30	
O=C(OC1C2CC3CC(C2)CC1C3)N1CCC2(CC1)CNc1ccccc12 (centres unmarked) [Example 20, 2-Adamantyl spiro[indoline-3,4′-piperidine]-1′-carboxylate]	> 7.30	
CC(C)(C)OC(=O)N1CC2(CCN(C(=O)OC3C4CC5CC(C4)CC3C5)CC2)c2ccccc21 (centres unmarked) [Example 128, 1-Tert-butyl 1′-(2-adamantyl)spiro[indoline-3,4′-piperidine]-1,1′-dicarboxylate]	6.00 to 7.30	
(±)-2-(1′-(Cyclohexylcarbamoyl)spiro[chroman-2,4′-piperidine]-4-yl)acetic acid [Example 14]	6.00 to 7.30	
(±)-Ethyl 1′-(cyclohexylcarbamoyl)-2,3-dihydrospiro[indene-1,4′-piperidine]-3-carboxylate [Example 16]	> 7.30	
(±)-Ethyl 1′-(cyclohexylcarbamoyl)spiro[chroman-2,4′-piperidine]-4-carboxylate [Example 17]	6.00 to 7.30	

Second part, the compound after the results:

pIC50 (human 11β-HSD1 [1])	pIC50 (human 11β-HSD1 [2])	Compound
> 7.30		COC(=O)CC1CC2(CCN(C(=O)OC3C4CC5CC(C4)CC3C5)CC2)c2ccccc21 (racemic) [Example 24, (±)-2-Adamantyl 3-(2-methoxy-2-oxoethyl)-2,3-dihydrospiro[indene-1,4′-piperidine]-1′-carboxylate]
> 7.30		CNC(=O)CC1CC2(CCN(C(=O)OC3C4CC5CC(C4)CC3C5)CC2)c2ccccc21 (racemic) [Example 26, (±)-2-Adamantyl 3-(2-(methylamino)-2-oxoethyl)-2,3-dihydrospiro[indene-1,4′-piperidine]-1′-carboxylate]
> 7.30		O=C(OC1C2CC3CC(C2)CC1C3)N1CCC2(CC1)CNc1ccc(F)cc12 (centres unmarked) [Example 21, 2-Adamantyl 5-fluorospiro[indoline-3,4′-piperidine]-1′-carboxylate]
> 7.30		Cc1ccc2c(c1)C1(CCN(C(=O)OC3C4CC5CC(C4)CC3C5)CC1)CN2 (centres unmarked) [Example 22, 2-Adamantyl 5-methylspiro[indoline-3,4′-piperidine]-1′-carboxylate]
> 7.30	> 7.30	CC(=O)N1CC2(CCN(C(=O)OC3C4CC5CC(C4)CC3C5)CC2)c2ccccc21 (centres unmarked) [Example 23, 2-Adamantyl 1-acetylspiro[indoline-3,4′-piperidine]-1′-carboxylate]
> 7.30		O=C(O)CC1CC2(CCN(C(=O)OC3C4CC5CC(C4)CC3C5)CC2)c2ccccc21 (centres unmarked) [Example 25, 2-(1′-((2-Adamantyloxy)carbonyl)-2,3-dihydrospiro[indene-1,4′-piperidine]-3-yl)acetic acid]
> 7.30		CC(C)(C)OC(=O)N1Cc2ccccc2C2(CCN(C(=O)NC3C4CC5CC(C4)CC3C5)CC2)C1 (centres unmarked) [Example 29, Tert-butyl 1′-((2-adamantyl)carbamoyl)-1H-spiro[isoquinoline-4,4′-piperidine]-2(3H)-carboxylate]
> 7.30	> 7.30	O=C(NC1C2CC3CC(C2)CC1C3)N1CCC2(CC1)CNCc1ccccc12 (centres unmarked) [Example 30, N-(2-Adamantyl)-2,3-dihydro-1H-spiro[isoquinoline-4,4′-piperidine]-1′-carboxamide]
> 7.30	> 7.30	CC(=O)N1Cc2ccccc2C2(CCN(C(=O)NC3C4CC5CC(C4)CC3C5)CC2)C1 (centres unmarked) [Example 31, 2-Acetyl-N-(2-adamantyl)-2,3-dihydro-1H-spiro[isoquinoline-4,4′-piperidine]-1′-carboxamide]
> 7.30	> 7.30	O=C(OC1C2CC3CC(C2)CC1C3)N1CCC2(CC1)OCc1ccccc12 (centres unmarked) [Example 84, 2-Adamantyl 3H-spiro[isobenzofuran-1,4′-piperidine]-1′-carboxylate]
6.00 to 7.30	> 7.30	O=C(O)CCCC(=O)N1Cc2ccccc2C2(CCN(C(=O)NC3C4CC5CC(C4)CC3C5)CC2)C1 (centres unmarked) [Example 95, 5-(1′(2-Adamantylcarbamoyl)-1H-spiro[isoquinoline-4,4′-piperidine]-2(3H)-yl)-5-oxopentanoic acid]
6.00 to 7.30		CC(C)(C)OC(=O)N1CC2(CCN(C(=O)OC3C4CC5CC(C4)CC3C5)CC2)c2cc(F)ccc21 (centres unmarked) [Example 129, 1-Tert-butyl 1′-(2-adamantyl) 5-fluorospiro[indoline-3,4′-piperidine]-1,1′-dicarboxylate]
6.00 to 7.30		Cc1ccc2c(c1)C1(CCN(C(=O)OC3C4CC5CC(C4)CC3C5)CC1)CN2C(=O)OC(C)(C)C (centres unmarked) [Example 130, 1-Tert-butyl 1′-(2-adamantyl) 5-methylspiro[indoline-3,4′-piperidine]-1,1′-dicarboxylate]
